# Laboratory results as given in the OligoGym collection.
# HELM strings list units from the 5' end as sugar, base in round brackets, then linkage (d deoxyribose, r ribose, m 2'-O-methyl, p phosphodiester). Strings are as the collection lists them; they lack the last nucleoside at the 3' end of the tested compound. [moe] = 2'-O-(2-methoxyethyl) (MOE); [sp] = phosphorothioate linkage; [m5C] = 5-methylcytosine
# Target: GFAP
# Assay: mouse, dose not given
# Conditions: ASO
row,Substance,3 h FOB score
1,RNA1{[moe](T)[sp].[moe](G)p.[moe](T)p.[moe](G)p.[moe](A)[sp].d(T)[sp].d(T)[sp].d(T)[sp].d(T)[sp].d([m5C])[sp].d([m5C])[sp].d([m5C])[sp].d([m5C])[sp].[moe](G)p.[moe](T)p.[moe]([m5C])[sp].[moe](T)}$$$$ (last 3' nucleoside missing),0 score 0-7
2,RNA1{[moe](A)[sp].[moe](G)p.[moe]([m5C])p.[moe](A)p.[moe](T)p.[moe](T)p.d(T)[sp].d(G)[sp].d(T)[sp].d([m5C])[sp].d(T)[sp].d(T)[sp].d(T)[sp].d(A)[sp].d(T)[sp].d(T)[sp].[moe](T)p.[moe](T)[sp].[moe](T)}$$$$ (last 3' nucleoside missing),1 score 0-7
3,RNA1{[moe](T)[sp].[moe]([m5C])p.[moe]([m5C])p.[moe](T)p.[moe](G)[sp].d([m5C])[sp].d([m5C])[sp].d(T)[sp].d([m5C])[sp].d(A)[sp].d([m5C])[sp].d(A)[sp].d(T)[sp].d([m5C])[sp].d(A)[sp].[moe]([m5C])p.[moe](A)p.[moe](T)[sp].[moe]([m5C])}$$$$ (last 3' nucleoside missing),0 score 0-7
4,RNA1{[moe](G)[sp].[moe](G)p.[moe]([m5C])p.[moe](A)p.d([m5C])[sp].d(A)[sp].d(G)[sp].d(T)[sp].d(T)[sp].d([m5C])[sp].d([m5C])[sp].d([m5C])[sp].d(A)[sp].d(G)[sp].[moe](A)p.[moe](T)p.[moe](A)p.[moe]([m5C])[sp].[moe](T)}$$$$ (last 3' nucleoside missing),1 score 0-7
5,RNA1{[moe](G)[sp].[moe]([m5C])p.[moe](G)p.[moe](A)p.[moe](T)[sp].d(G)[sp].d(G)[sp].d(A)[sp].d(G)[sp].d([m5C])[sp].d([m5C])[sp].d(T)[sp].d([m5C])[sp].d(A)[sp].d(G)[sp].[moe](G)p.[moe](G)p.[moe](A)[sp].[moe](T)}$$$$ (last 3' nucleoside missing),7 score 0-7
6,RNA1{[moe](A)[sp].[moe](A)p.[moe](T)p.[moe]([m5C])p.[moe](A)[sp].d(T)[sp].d(T)[sp].d(T)[sp].d([m5C])[sp].d(A)[sp].d(G)[sp].d(G)[sp].d(G)[sp].d([m5C])[sp].d([m5C])[sp].[moe](A)p.[moe](A)p.[moe](T)[sp].[moe](G)}$$$$ (last 3' nucleoside missing),5 score 0-7
7,RNA1{[moe]([m5C])[sp].[moe](A)p.[moe]([m5C])p.[moe](A)p.[moe](T)p.d(T)[sp].d([m5C])[sp].d(A)[sp].d([m5C])[sp].d(T)[sp].d(A)[sp].d(A)[sp].d(T)[sp].d(A)[sp].d(T)[sp].[moe](T)p.[moe](T)p.[moe](A)[sp].[moe](A)}$$$$ (last 3' nucleoside missing),0 score 0-7
8,RNA1{[moe](T)[sp].[moe](T)p.[moe](G)p.[moe](G)p.d([m5C])[sp].d(A)[sp].d(G)[sp].d(T)[sp].d(A)[sp].d(T)[sp].d(T)[sp].d(A)[sp].d([m5C])[sp].d([m5C])[sp].[moe](T)p.[moe]([m5C])p.[moe](T)p.[moe](A)[sp].[moe]([m5C])}$$$$ (last 3' nucleoside missing),1 score 0-7
9,RNA1{[moe](G)[sp].[moe]([m5C])p.[moe](T)p.[moe](T)p.d(T)[sp].d(T)[sp].d(G)[sp].d(A)[sp].d(G)[sp].d(A)[sp].d(T)[sp].d(A)[sp].d(T)[sp].d([m5C])[sp].[moe](T)p.[moe](T)p.[moe](G)p.[moe](T)[sp].[moe](G)}$$$$ (last 3' nucleoside missing),1 score 0-7
10,RNA1{[moe]([m5C])[sp].[moe](G)p.[moe](G)p.[moe](A)p.[moe](T)[sp].d([m5C])[sp].d(T)[sp].d([m5C])[sp].d(T)[sp].d(T)[sp].d(T)[sp].d([m5C])[sp].d(A)[sp].d(G)[sp].d(G)[sp].[moe](G)p.[moe]([m5C])p.[moe](T)[sp].[moe](G)}$$$$ (last 3' nucleoside missing),5 score 0-7
11,RNA1{[moe](T)[sp].[moe](G)p.[moe](A)p.[moe]([m5C])p.[moe]([m5C])[sp].d(T)[sp].d(G)[sp].d(T)[sp].d(G)[sp].d(A)[sp].d([m5C])[sp].d(T)[sp].d(A)[sp].d(T)[sp].d([m5C])[sp].[moe](T)p.[moe](A)p.[moe](G)[sp].[moe](G)}$$$$ (last 3' nucleoside missing),5 score 0-7
12,RNA1{[moe](T)[sp].[moe](T)p.[moe](T)p.[moe](G)p.[moe](G)p.d([m5C])[sp].d(A)[sp].d(G)[sp].d(T)[sp].d(A)[sp].d(T)[sp].d(T)[sp].d(A)[sp].d([m5C])[sp].d([m5C])[sp].[moe](T)p.[moe]([m5C])p.[moe](T)[sp].[moe](A)}$$$$ (last 3' nucleoside missing),1 score 0-7
13,RNA1{[moe](G)[sp].[moe]([m5C])p.[moe](T)p.[moe](T)p.[moe](T)p.d(T)[sp].d(G)[sp].d([m5C])[sp].d([m5C])[sp].d([m5C])[sp].d([m5C])[sp].d([m5C])[sp].d(T)[sp].d(G)[sp].d(T)[sp].[moe](A)p.[moe](G)p.[moe](T)[sp].[moe](G)}$$$$ (last 3' nucleoside missing),4 score 0-7
14,RNA1{[moe]([m5C])[sp].[moe](A)p.[moe]([m5C])p.[moe](G)p.[moe](T)p.d([m5C])[sp].d(A)[sp].d([m5C])[sp].d(A)[sp].d(T)[sp].d(T)[sp].d([m5C])[sp].d(A)[sp].d([m5C])[sp].d(T)[sp].[moe](A)p.[moe](A)p.[moe](T)[sp].[moe](A)}$$$$ (last 3' nucleoside missing),0 score 0-7
15,RNA1{[moe](A)[sp].[moe](A)p.[moe](A)p.[moe](G)p.[moe](G)p.[moe]([m5C])p.d(A)[sp].d([m5C])[sp].d(A)[sp].d(G)[sp].d(T)[sp].d(T)[sp].d([m5C])[sp].d([m5C])[sp].d([m5C])[sp].d(A)[sp].[moe](G)p.[moe](A)[sp].[moe](T)}$$$$ (last 3' nucleoside missing),2 score 0-7
16,RNA1{[moe](A)[sp].[moe](T)p.[moe](T)p.[moe](T)p.d(G)[sp].d(T)[sp].d([m5C])[sp].d(T)[sp].d(T)[sp].d(T)[sp].d(A)[sp].d(T)[sp].d(T)[sp].d(T)[sp].[moe](T)p.[moe](T)p.[moe]([m5C])p.[moe]([m5C])[sp].[moe](T)}$$$$ (last 3' nucleoside missing),0 score 0-7
17,RNA1{[moe]([m5C])[sp].[moe]([m5C])p.[moe](T)p.[moe](T)p.[moe](G)p.d(T)[sp].d(G)[sp].d(A)[sp].d(T)[sp].d(T)[sp].d(T)[sp].d(T)[sp].d([m5C])[sp].d([m5C])[sp].d([m5C])[sp].[moe]([m5C])p.[moe](G)p.[moe](T)[sp].[moe]([m5C])}$$$$ (last 3' nucleoside missing),0 score 0-7
18,RNA1{[moe](T)[sp].[moe](G)p.[moe](T)p.[moe](G)p.[moe](T)p.[moe](A)p.d(T)[sp].d(T)[sp].d(A)[sp].d(G)[sp].d(G)[sp].d(A)[sp].d(T)[sp].d([m5C])[sp].d([m5C])[sp].d([m5C])[sp].[moe](A)p.[moe](T)[sp].[moe]([m5C])}$$$$ (last 3' nucleoside missing),3 score 0-7
19,RNA1{[moe](T)[sp].[moe](G)p.[moe]([m5C])p.[moe]([m5C])p.[moe](A)[sp].d(T)[sp].d(T)[sp].d(T)[sp].d(A)[sp].d(T)[sp].d([m5C])[sp].d(T)[sp].d(G)[sp].[moe](T)p.[moe](G)p.[moe]([m5C])[sp].[moe](T)}$$$$ (last 3' nucleoside missing),3 score 0-7
20,RNA1{[moe](A)[sp].[moe](G)p.[moe](T)p.[moe]([m5C])p.[moe](A)[sp].d(G)[sp].d([m5C])[sp].d([m5C])[sp].d(T)[sp].d(G)[sp].d(G)[sp].d(T)[sp].d(T)[sp].d(A)[sp].d(G)[sp].[moe]([m5C])p.[moe]([m5C])p.[moe](T)[sp].[moe](T)}$$$$ (last 3' nucleoside missing),6 score 0-7
21,RNA1{[moe](T)[sp].[moe](T)p.[moe](T)p.[moe](G)p.[moe](A)[sp].d(G)[sp].d(A)[sp].d(T)[sp].d(A)[sp].d(T)[sp].d([m5C])[sp].d(T)[sp].d(T)[sp].[moe](G)p.[moe](T)p.[moe](G)[sp].[moe](A)}$$$$ (last 3' nucleoside missing),3 score 0-7
22,RNA1{[moe](G)[sp].[moe](T)p.[moe](T)p.[moe](T)p.[moe]([m5C])[sp].d([m5C])[sp].d(T)[sp].d(T)[sp].d(T)[sp].d(T)[sp].d(A)[sp].d([m5C])[sp].d([m5C])[sp].d(A)[sp].d(A)[sp].[moe](G)p.[moe]([m5C])p.[moe](T)[sp].[moe](G)}$$$$ (last 3' nucleoside missing),4 score 0-7
23,RNA1{[moe](G)[sp].[moe](G)p.[moe]([m5C])p.[moe](A)p.[moe](G)[sp].d(T)[sp].d(A)[sp].d(T)[sp].d(T)[sp].d(A)[sp].d([m5C])[sp].d([m5C])[sp].d(T)[sp].[moe]([m5C])p.[moe](T)p.[moe](A)[sp].[moe]([m5C])}$$$$ (last 3' nucleoside missing),0 score 0-7
24,RNA1{[moe]([m5C])[sp].[moe]([m5C])p.[moe](T)p.[moe](T)p.d(G)[sp].d(T)[sp].d(G)[sp].d(A)[sp].d(T)[sp].d(T)[sp].d(T)[sp].d(T)[sp].d([m5C])[sp].d([m5C])[sp].[moe]([m5C])p.[moe]([m5C])p.[moe](G)p.[moe](T)[sp].[moe]([m5C])}$$$$ (last 3' nucleoside missing),1 score 0-7
25,RNA1{[moe](G)[sp].[moe](T)p.[moe](G)p.[moe](A)p.[moe](T)[sp].d(T)[sp].d(T)[sp].d(T)[sp].d([m5C])[sp].d([m5C])[sp].d([m5C])[sp].d([m5C])[sp].d(G)[sp].d(T)[sp].d([m5C])[sp].[moe](T)p.[moe](T)p.[moe](T)[sp].[moe](G)}$$$$ (last 3' nucleoside missing),6 score 0-7
26,RNA1{[moe](T)[sp].[moe]([m5C])p.[moe](T)p.[moe](G)p.[moe]([m5C])[sp].d(T)[sp].d([m5C])[sp].d(G)[sp].d(G)[sp].d(G)[sp].d([m5C])[sp].d([m5C])[sp].d([m5C])[sp].d([m5C])[sp].d(T)[sp].[moe]([m5C])p.[moe](A)p.[moe](T)[sp].[moe](G)}$$$$ (last 3' nucleoside missing),2 score 0-7
